Data reported in ChEMBL document CHEMBL4229457, “Mechanism underlying inhibitory effect of six dicaffeoylquinic acid isomers on melanogenesis and the computational molecular modeling studies” (Bioorg Med Chem, 2018).
Calls of active or inactive are those of the source. No cut-off for these calls is given here.

Columns and labels:
[1] = tested on: B16-F1; assay: Inhibition of adenylate cyclase in alpha-MSH-stimulated mouse B16-F1 cells assessed as reduction in cAMP-CREB signaling pathway-mediated DCT expression level at 25 uM after 48 to 72 hrs by Western blot analysis; assay type: cell-based
[2] = tested on: B16-F1; assay: Inhibition of adenylate cyclase in alpha-MSH-stimulated mouse B16-F1 cells assessed as reduction in cAMP-CREB signaling pathway-mediated TYR expression level at 25 uM after 48 to 72 hrs by Western blot analysis; assay type: cell-based
[3] = molecular target: T1, Tyrosinase (Mus musculus) (UniProt P11344); conditions: at 25 µM
T1 sequence (whole entry): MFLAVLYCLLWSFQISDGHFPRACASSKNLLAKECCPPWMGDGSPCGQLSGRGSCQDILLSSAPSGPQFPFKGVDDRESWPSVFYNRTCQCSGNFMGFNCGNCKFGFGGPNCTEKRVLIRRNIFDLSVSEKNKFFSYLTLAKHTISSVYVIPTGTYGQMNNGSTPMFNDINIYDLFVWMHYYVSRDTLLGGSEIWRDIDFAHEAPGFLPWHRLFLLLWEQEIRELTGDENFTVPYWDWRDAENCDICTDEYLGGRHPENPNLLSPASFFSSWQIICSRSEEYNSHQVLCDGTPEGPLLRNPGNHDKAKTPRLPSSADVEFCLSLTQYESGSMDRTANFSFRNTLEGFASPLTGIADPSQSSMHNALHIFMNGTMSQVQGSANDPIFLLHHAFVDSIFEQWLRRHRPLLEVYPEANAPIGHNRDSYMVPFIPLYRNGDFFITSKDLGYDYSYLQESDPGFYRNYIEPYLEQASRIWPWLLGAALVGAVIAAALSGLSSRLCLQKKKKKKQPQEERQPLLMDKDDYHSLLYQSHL
Description: Inhibition of tyrosinase in mouse B16-F1 cell lysates assessed as reduction in melanin production at 25 uM using L-DOPA as substrate incubated for 30 mins followed by substrate addition measured after 30 mins

[4] = tested on: B16-F1; assay: Inhibition of alpha-MSH-stimulated melanogenesis in mouse B16-F1 cells assessed as reduction in intracellular melanin production at 25 uM after 72 hrs relative to control; assay type: functional; conditions: B16-F1, 72 h
[5] = tested on: B16-F1; assay: Cytotoxicity against mouse B16-F1 cells assessed as reduction in cell viability at 25 uM after 72 hrs by MTT assay; assay type: cell-based; conditions: b16-f1, 72 h
[6] = tested on: B16-F1; assay: Inhibition of adenylate cyclase in alpha-MSH-stimulated mouse B16-F1 cells assessed as reduction in cAMP-CREB signaling pathway-mediated MITF expression level at 25 uM after 48 to 72 hrs by Western blot analysis; assay type: cell-based
[7] = molecular target: T2, Tyrosinase (Homo sapiens) (UniProt P14679); assay: Inhibition of tyrosinase in HEMn lysates assessed as reduction in melanin production using L-DOPA as substrate incubated for 30 mins followed by substrate addition measured after 30 mins
T2 sequence (whole entry): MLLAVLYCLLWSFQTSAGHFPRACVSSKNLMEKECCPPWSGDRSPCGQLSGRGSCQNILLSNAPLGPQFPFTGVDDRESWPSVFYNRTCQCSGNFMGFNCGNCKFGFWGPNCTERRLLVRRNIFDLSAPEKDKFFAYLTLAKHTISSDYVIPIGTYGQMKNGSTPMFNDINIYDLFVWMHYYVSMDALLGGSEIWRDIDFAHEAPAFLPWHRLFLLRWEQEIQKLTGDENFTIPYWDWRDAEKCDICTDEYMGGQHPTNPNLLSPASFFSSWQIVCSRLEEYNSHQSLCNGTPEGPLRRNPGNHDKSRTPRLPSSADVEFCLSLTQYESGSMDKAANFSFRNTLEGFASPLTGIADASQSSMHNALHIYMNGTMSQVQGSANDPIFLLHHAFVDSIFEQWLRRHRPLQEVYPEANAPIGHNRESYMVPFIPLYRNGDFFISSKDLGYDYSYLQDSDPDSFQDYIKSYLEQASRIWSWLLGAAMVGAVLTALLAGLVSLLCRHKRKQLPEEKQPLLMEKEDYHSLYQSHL

[8] = Inhibition of melanogenesis in HEMn assessed as reduction in intracellular melanin production at 25 uM after 72 hrs relative to control; assay type: functional; conditions: Homo sapiens
[9] = Inhibition of melanogenesis in HEMn assessed as reduction in intracellular melanin production at 10 uM after 72 hrs relative to control; assay type: functional; conditions: Homo sapiens
[10] = tested on: B16-F1; assay: Inhibition of adenylate cyclase in alpha-MSH-stimulated mouse B16-F1 cells assessed as reduction in CREB phosphorylation at 25 uM measured up to 360 mins by Western blot analysis; assay type: cell-based
[11] = Inhibition of melanogenesis in HEMn assessed as reduction in intracellular melanin production at 5 uM after 72 hrs relative to control; assay type: functional; conditions: Homo sapiens
[12] = organism: Mus musculus; assay: Inhibition of adenylate cyclase in mouse B16-F1 cell lysates assessed as reduction in forskolin-induced cAMP levels incubated for 6 hrs followed by forskolin stimulation measured after 30 mins by immuno assay
[13] = tested on: B16-F1; assay: Inhibition of adenylate cyclase in alpha-MSH-stimulated mouse B16-F1 cells assessed as reduction in cAMP-CREB signaling pathway-mediated TRP1 expression level at 25 uM after 48 to 72 hrs by Western blot analysis; assay type: cell-based
[14] = Inhibition of melanogenesis in HEMn assessed as reduction in intracellular melanin production at 1 uM after 72 hrs relative to control; assay type: functional; conditions: Homo sapiens
[15] = organism: Mus musculus; assay: Inhibition of adenylate cyclase in mouse B16-F1 cell lysates assessed as reduction in alpha-MSH-induced cAMP levels incubated for 6 hrs followed by forskolin stimulation measured after 30 mins by immuno assay
[16] = tested on: B16-F1; assay: Downregulation of adenylate cyclase protein expression level in alpha-MSH-stimulated mouse B16-F1 cells at 25 uM by Western blot analysis; assay type: functional, cell-based

Compound	inhibition [1]	inhibition [2]	inhibition [3]	inhibition at 25 µM [4] [%]	Activity [5]	inhibition [6]	inhibition [7]	inhibition at 25 µM [8] [%]	inhibition at 10 µM [9] [%]	inhibition [10]	inhibition at 5 µM [11] [%]	inhibition [12]	inhibition [13]	inhibition at 1 µM [14] [%]	inhibition [15]	Activity [16]
O=C(/C=C/c1ccc(O)c(O)c1)OC1[C@H](O)CC(OC(=O)/C=C/c2ccc(O)c(O)c2)(C(=O)O)C[C@@H]1O (stereo not given in full)	Active	92%	> 20%	18	Non-Toxic											
O=C(/C=C/c1ccc(O)c(O)c1)O[C@H]1C[C@@](OC(=O)/C=C/c2ccc(O)c(O)c2)(C(=O)O)C[C@H](O)[C@@H]1O	Active	66%	> 20%	26	Non-Toxic											
O=C(/C=C/c1ccc(O)c(O)c1)O[C@H]1[C@H](O)C[C@@](O)(C(=O)O)C[C@H]1OC(=O)/C=C/c1ccc(O)c(O)c1	Active	Active	> 20%	84	Non-Toxic	91%	Dose-dependent effect	51.2	25.8	Active	11.2	Dose-dependent effect	Active	7.7	Dose-dependent effect	inactive
OC[C@H]1O[C@@H](Oc2ccc(O)cc2)[C@H](O)[C@@H](O)[C@@H]1O [ARBUTIN]			Active	34												
O=C(/C=C/c1ccc(O)c(O)c1)O[C@@H]1C[C@@](OC(=O)/C=C/c2ccc(O)c(O)c2)(C(=O)O)C[C@@H](O)[C@@H]1O [CYNARIN]	Active	72%	> 20%	61	Non-Toxic											
O=C(/C=C/c1ccc(O)c(O)c1)O[C@@H]1[C@H](O)C[C@@](O)(C(=O)O)C[C@H]1OC(=O)/C=C/c1ccc(O)c(O)c1	Active	Active	> 20%	26	Non-Toxic											
O=C(/C=C/c1ccc(O)c(O)c1)O[C@@H]1C[C@](O)(C(=O)O)C[C@@H](OC(=O)/C=C/c2ccc(O)c(O)c2)[C@H]1O	Active	Active	> 20%	26	Non-Toxic	Active							Active			
